The values below come from patent US20090304692A1, “TRIAZINE COMPOUNDS AS PI3 KINASE AND MTOR INHIBITORS” (Wyeth, priority 2008, published 2009).

Test [1] concerns human prostate LNCap tumor cell line. The test is described as follows: In vitro cell culture growth assay (MTS), LNCap. The conditions noted are these: Homo sapiens, LNCaP, 72 h, read-out: IC50 LNCap.
Test [2] deals with Human mTOR (FLAG-TOR) (Homo sapiens, UniProt P42345). The test is described as follows: mTOR kinase assay (DELFIA format, purified enzyme). Type of test: biochemical. The conditions noted are these: read-out: IC50 mTOR.
Sequence of Human mTOR (FLAG-TOR) (P42345 1360-2549 limits assumed): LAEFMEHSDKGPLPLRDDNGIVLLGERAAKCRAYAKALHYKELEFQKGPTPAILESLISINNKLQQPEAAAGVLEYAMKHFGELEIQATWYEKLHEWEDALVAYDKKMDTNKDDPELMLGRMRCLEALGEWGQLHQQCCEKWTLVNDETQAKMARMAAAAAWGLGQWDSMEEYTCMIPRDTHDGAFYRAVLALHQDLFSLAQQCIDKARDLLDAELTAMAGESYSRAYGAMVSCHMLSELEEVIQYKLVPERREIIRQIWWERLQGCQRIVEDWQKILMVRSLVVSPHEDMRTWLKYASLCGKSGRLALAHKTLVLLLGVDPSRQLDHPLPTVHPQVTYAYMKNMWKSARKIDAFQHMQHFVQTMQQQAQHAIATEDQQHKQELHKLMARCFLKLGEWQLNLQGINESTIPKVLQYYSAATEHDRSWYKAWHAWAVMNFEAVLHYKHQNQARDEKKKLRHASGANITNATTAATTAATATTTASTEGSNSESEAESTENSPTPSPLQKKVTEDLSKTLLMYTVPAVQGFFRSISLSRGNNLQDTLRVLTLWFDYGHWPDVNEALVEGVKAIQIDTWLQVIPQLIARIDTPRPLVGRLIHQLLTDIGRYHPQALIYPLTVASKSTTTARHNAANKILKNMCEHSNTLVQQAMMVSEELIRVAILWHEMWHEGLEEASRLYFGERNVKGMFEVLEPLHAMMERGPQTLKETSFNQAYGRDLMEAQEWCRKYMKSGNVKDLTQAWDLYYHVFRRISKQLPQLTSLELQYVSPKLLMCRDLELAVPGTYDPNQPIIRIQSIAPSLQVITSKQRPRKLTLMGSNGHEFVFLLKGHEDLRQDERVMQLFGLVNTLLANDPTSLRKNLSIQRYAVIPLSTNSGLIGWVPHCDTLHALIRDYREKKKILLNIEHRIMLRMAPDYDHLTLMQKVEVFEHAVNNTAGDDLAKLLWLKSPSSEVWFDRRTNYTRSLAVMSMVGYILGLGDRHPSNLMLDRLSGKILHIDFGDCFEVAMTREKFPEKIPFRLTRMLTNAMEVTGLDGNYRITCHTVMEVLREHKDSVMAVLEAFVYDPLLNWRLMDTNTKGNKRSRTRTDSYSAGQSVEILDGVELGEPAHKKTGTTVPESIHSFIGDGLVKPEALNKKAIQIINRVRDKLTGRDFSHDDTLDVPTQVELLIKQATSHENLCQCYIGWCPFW
Test [3] has as its target PI3K-α (Homo sapiens, UniProt P42336). The experiment in a line: PI3K-alpha fluorescence polarization assay. The conditions noted are these: read-out: IC50 PI3Kα. (In general: Fluorescence polarisation rises when a labelled molecule tumbles more slowly, as on binding a larger partner.)
Test [4] has as its target PI3K-γ (Homo sapiens, UniProt P48736). The test is described as follows: PI3K-gamma fluorescence polarization assay. As to conditions: read-out: IC50 PI3Kγ.

Sequence of PI3K-α (P42336 whole entry, species assumed): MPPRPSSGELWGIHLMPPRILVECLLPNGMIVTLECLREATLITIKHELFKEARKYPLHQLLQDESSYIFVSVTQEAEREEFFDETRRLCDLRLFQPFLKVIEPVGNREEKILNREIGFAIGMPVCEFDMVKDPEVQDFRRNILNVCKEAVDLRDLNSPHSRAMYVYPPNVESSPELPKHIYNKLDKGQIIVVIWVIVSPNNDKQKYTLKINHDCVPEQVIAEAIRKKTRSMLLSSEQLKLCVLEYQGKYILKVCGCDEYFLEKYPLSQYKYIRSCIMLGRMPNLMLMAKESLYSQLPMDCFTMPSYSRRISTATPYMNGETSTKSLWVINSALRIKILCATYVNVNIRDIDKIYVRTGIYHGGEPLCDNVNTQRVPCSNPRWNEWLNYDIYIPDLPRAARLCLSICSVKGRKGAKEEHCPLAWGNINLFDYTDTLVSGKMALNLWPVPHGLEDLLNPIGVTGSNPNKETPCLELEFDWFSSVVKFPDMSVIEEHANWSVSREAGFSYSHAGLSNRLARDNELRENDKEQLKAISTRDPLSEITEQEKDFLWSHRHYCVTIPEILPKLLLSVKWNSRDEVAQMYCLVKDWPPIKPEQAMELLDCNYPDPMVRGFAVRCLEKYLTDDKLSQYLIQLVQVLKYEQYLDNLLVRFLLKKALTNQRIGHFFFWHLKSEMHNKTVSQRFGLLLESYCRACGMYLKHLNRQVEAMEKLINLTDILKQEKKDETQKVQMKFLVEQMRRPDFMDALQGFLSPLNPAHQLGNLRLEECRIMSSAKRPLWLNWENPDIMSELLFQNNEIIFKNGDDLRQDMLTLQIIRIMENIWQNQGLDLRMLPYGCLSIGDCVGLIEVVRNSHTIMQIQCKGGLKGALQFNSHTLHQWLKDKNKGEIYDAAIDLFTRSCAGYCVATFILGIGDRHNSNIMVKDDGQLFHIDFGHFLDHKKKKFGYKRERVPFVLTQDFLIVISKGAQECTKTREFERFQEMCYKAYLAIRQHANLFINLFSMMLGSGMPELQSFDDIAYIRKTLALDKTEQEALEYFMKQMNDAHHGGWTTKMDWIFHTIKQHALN
Sequence of PI3K-α (P27986 whole entry partner, species assumed): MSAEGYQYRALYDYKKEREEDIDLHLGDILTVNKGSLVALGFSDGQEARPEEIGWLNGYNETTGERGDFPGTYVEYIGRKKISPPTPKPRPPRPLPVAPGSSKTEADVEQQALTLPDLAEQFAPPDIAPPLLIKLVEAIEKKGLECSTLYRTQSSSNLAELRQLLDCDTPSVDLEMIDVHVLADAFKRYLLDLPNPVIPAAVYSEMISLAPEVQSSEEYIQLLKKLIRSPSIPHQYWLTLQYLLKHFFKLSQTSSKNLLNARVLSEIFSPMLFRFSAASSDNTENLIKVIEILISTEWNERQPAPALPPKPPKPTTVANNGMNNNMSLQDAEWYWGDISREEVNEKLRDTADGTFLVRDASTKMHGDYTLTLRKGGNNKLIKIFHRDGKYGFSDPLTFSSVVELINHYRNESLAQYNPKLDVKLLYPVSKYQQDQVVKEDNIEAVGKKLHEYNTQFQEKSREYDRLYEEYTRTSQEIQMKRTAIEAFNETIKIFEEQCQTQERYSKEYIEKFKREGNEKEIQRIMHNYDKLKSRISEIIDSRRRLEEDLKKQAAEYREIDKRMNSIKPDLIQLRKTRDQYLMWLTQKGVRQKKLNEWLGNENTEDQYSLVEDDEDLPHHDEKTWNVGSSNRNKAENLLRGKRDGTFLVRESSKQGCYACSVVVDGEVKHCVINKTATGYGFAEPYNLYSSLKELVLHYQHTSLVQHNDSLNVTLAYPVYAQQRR
Sequence of PI3K-γ (P48736 whole entry, species assumed): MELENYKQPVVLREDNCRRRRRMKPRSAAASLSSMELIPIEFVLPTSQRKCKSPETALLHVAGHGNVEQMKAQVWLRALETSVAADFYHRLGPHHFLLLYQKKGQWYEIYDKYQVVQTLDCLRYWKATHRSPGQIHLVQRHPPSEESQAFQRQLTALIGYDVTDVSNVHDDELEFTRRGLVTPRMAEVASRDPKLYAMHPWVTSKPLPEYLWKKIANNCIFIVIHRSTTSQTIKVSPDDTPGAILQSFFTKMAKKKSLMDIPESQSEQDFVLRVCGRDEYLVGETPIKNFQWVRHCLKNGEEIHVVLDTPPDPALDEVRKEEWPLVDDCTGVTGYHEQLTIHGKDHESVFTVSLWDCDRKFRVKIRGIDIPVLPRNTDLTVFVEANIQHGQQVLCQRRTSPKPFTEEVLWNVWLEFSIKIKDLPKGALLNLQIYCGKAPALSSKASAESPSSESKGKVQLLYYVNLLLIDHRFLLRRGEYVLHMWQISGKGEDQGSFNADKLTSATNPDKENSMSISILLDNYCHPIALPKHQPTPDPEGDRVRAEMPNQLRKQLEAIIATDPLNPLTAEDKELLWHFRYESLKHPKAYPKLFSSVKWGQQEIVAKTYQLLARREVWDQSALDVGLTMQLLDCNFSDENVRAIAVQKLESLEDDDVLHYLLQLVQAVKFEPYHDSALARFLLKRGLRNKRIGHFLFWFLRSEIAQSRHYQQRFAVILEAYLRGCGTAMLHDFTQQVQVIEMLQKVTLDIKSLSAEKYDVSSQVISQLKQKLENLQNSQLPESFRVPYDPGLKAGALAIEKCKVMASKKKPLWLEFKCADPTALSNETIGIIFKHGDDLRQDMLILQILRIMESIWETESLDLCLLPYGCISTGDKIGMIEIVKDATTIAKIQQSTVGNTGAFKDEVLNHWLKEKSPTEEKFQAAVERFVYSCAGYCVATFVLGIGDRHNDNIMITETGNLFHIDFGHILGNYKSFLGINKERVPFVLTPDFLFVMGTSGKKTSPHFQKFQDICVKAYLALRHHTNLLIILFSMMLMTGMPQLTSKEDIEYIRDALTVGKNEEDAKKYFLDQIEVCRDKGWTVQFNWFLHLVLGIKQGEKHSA

For orientation: IC50 means the midpoint of a concentration-inhibition curve. Turning to `CC(C)Nc1nc(-c2ccc(NC(=O)Nc3ccc(CN4CCN(C)CC4)cc3)cc2)nc(N2C3CCC2COC3)n1` [Example 379, 1-(4-(4-(3-oxa-8-azabicyclo[3.2.1]octan-8-yl)-6-(isopropylamino)-1,3,5-triazin-2-yl)phenyl)-3-(4-((4-methylpiperazin-1-yl)methyl)phenyl)urea], the half-inhibitory concentration (IC50) in test [1] was 140 nM; in test [2] it was 7.3 nM; in test [3], 4750 nM; in test [4], 5260 nM.
`CC(C)Nc1nc(-c2ccc(NC(=O)Nc3ccc(CN4CCNCC4)cc3)cc2)nc(N2C3CCC2COC3)n1` [Example 380, 1-(4-(4-(3-oxa-8-azabicyclo[3.2.1]octan-8-yl)-6-(isopropylamino)-1,3,5-triazin-2-yl)phenyl)-3-(4-(piperazin-1-ylmethyl)phenyl)urea]: the IC50 in test [1] stood at 300 nM; in test [2], 5.1 nM; in test [3], 3340 nM; in test [4] it was 3560 nM.
The matching figures for `CC(C)Nc1nc(-c2ccc(NC(=O)Nc3ccc(CN(C)C)cc3)cc2)nc(N2C3CCC2COC3)n1` [Example 381, 1-(4-(4-(3-oxa-8-azabicyclo[3.2.1]octan-8-yl)-6-(isopropylamino)-1,3,5-triazin-2-yl)phenyl)-3-(4-((dimethylamino)methyl)phenyl)urea]: 140 nM, 5.9 nM, 2960 nM and 5400 nM.
For `CC(C)Nc1nc(-c2ccc(NC(=O)Nc3ccc(CN)cc3)cc2)nc(N2C3CCC2COC3)n1` [Example 382, 1-(4-(4-(3-oxa-8-azabicyclo[3.2.1]octan-8-yl)-6-(isopropylamino)-1,3,5-triazin-2-yl)phenyl)-3-(4-(aminomethyl)phenyl)urea], the IC50 in test [1] was 48 nM; in test [2] it was 4.5 nM; in test [3] it was 522 nM; in test [4], 4310 nM.
The corresponding values for `CC(C)Nc1nc(-c2ccc(NC(=O)Nc3ccc(CN4CCCC4)cc3)cc2)nc(N2C3CCC2COC3)n1` [Example 383, 1-(4-(4-(3-oxa-8-azabicyclo[3.2.1]octan-8-yl)-6-(isopropylamino)-1,3,5-triazin-2-yl)phenyl)-3-(4-(pyrrolidin-1-ylmethyl)phenyl)urea] are 150 nM, 6.1 nM, 2980 nM and 3610 nM.
The matching figures for `CC(C)Nc1nc(-c2ccc(NC(=O)Nc3ccc(OCCN4CCCC4)cc3)cc2)nc(N2C3CCC2COC3)n1` [Example 384, 1-(4-(4-(3-oxa-8-azabicyclo[3.2.1]octan-8-yl)-6-(isopropylamino)-1,3,5-triazin-2-yl)phenyl)-3-(4-(2-(pyrrolidin-1-yl)ethoxy)phenyl)urea]: 50 nM, 6.4 nM, 4220 nM and 5380 nM.
The corresponding values for `CC(C)Nc1nc(-c2ccc(NC(=O)Nc3ccc(OCCN(C)C)cc3)cc2)nc(N2C3CCC2COC3)n1` [Example 385, 1-(4-(4-(3-oxa-8-azabicyclo[3.2.1]octan-8-yl)-6-(isopropylamino)-1,3,5-triazin-2-yl)phenyl)-3-(4-(2-(dimethylamino)ethoxy)phenyl)urea] are 70 nM, 5.7 nM, 3400 nM and 4690 nM.
As for `CC(C)Nc1nc(-c2ccc(NC(=O)Nc3ccc(N4CCNCC4)cc3)cc2)nc(N2C3CCC2COC3)n1` [Example 387, 1-(4-(4-(3-oxa-8-azabicyclo[3.2.1]octan-8-yl)-6-(isopropylamino)-1,3,5-triazin-2-yl)phenyl)-3-(4-(piperazin-1-yl)phenyl)urea], the IC50 in test [1] is 70 nM; in test [2], 3.2 nM; in test [3] it was 3420 nM; in test [4], 2860 nM.
Turning to `CC(C)Nc1nc(-c2ccc(NC(=O)Nc3ccc(N4CCC(N(C)C)CC4)cc3)cc2)nc(N2C3CCC2COC3)n1` [Example 388, 1-(4-(4-(3-oxa-8-azabicyclo[3.2.1]octan-8-yl)-6-(isopropylamino)-1,3,5-triazin-2-yl)phenyl)-3-(4-(4-(dimethylamino)piperidin-1-yl)phenyl)urea], the half-inhibitory concentration (IC50) in test [1] was found to be 110 nM; in test [2], 4.8 nM; in test [3] it was 3450 nM; in test [4] it was 4280 nM.
Take `CC(C)N(C)c1nc(-c2ccc(NC(=O)Nc3ccc(CN(C)C)cc3)cc2)nc(N2C3CCC2COC3)n1` [Example 390, 1-(4-(4-(3-oxa-8-azabicyclo[3.2.1]octan-8-yl)-6-(isopropyl(methyl)amino)-1,3,5-triazin-2-yl)phenyl)-3-(4-((dimethylamino)methyl)phenyl)urea]: the IC50 in test [1] came to 650 nM; in test [2] it was 12 nM; in test [3], 2470 nM; in test [4], 2350 nM.
Take `CC(C)N(C)c1nc(-c2ccc(NC(=O)Nc3ccc(OCCN(C)C)cc3)cc2)nc(N2C3CCC2COC3)n1` [Example 391, 1-(4-(4-(3-oxa-8-azabicyclo[3.2.1]octan-8-yl)-6-(isopropyl(methyl)amino)-1,3,5-triazin-2-yl)phenyl)-3-(4-(2-(dimethylamino)ethoxy)phenyl)urea]: the half-inhibitory concentration (IC50) was determined as 300 nM in test [1], 9.6 nM in test [2], 2400 nM in test [3] and 4000 nM in test [4].
In the case of `O=C(Nc1ccc(-c2nc(N3CCSCC3)nc(N3C4CCC3COC4)n2)cc1)Nc1cccnc1` [Example 392, 1-(4-(4-(3-oxa-8-azabicyclo[3.2.1]octan-8-yl)-6-thiomorpholino-1,3,5-triazin-2-yl)phenyl)-3-(pyridin-3-yl)urea], the IC50 was 480 nM in test [1], 5.5 nM in test [2], 1180 nM in test [3] and 2780 nM in test [4].
The matching figures for `O=C(Nc1ccncc1)Nc1ccc(-c2nc(N3CCSCC3)nc(N3C4CCC3COC4)n2)cc1` [Example 393, 1-(4-(4-(3-oxa-8-azabicyclo[3.2.1]octan-8-yl)-6-thiomorpholino-1,3,5-triazin-2-yl)phenyl)-3-(pyridin-4-yl)urea]: 580 nM, 3.6 nM, 444 nM and 1540 nM.
Regarding `CN(C)Cc1ccc(NC(=O)Nc2ccc(-c3nc(N4CCSCC4)nc(N4C5CCC4COC5)n3)cc2)cc1` [Example 395, 1-(4-(4-(3-oxa-8-azabicyclo[3.2.1]octan-8-yl)-6-thiomorpholino-1,3,5-triazin-2-yl)phenyl)-3-(4-((dimethylamino)methyl)phenyl)urea], the 50% inhibitory concentration (IC50) in test [1] turned out to be 590 nM; in test [2], 14 nM; in test [3], 584 nM; in test [4], 2220 nM.
The corresponding values for `C[C@@H]1COCCN1c1nc(-c2ccc(NC(=O)Nc3cccnc3)cc2)nc(N2CCOC[C@H]2C)n1` [Example 398, 1-(4-(4,6-bis((R)-3-methylmorpholino)-1,3,5-triazin-2-yl)phenyl)-3-(pyridin-3-yl)urea] are 12 nM, 0.21 nM, 644 nM and 3910 nM.
For `C[C@@H]1COCCN1c1nc(-c2ccc(NC(=O)Nc3ccc(N4CCN(C)CC4)cc3)cc2)nc(N2CCOC[C@H]2C)n1` [Example 399, 1-(4-(4,6-bis((R)-3-methylmorpholino)-1,3,5-triazin-2-yl)phenyl)-3-(4-(4-methylpiperazin-1-yl)phenyl)urea], the 50% inhibitory concentration (IC50) in test [1] is 3 nM; in test [2], 1.1 nM; in test [3] it was 330 nM; in test [4] it was 1690 nM.
